Data on 26 compounds can be found in patent publication US9556150B2, “Inhibitors of bruton's tyrosine kinase” (Hoffmann-La Roche Inc., priority 2013, dated 2017).

Structures are written as SMILES. Some results are limits rather than exact numbers.

Chain of Bruton's Tyrosine Kinase (BTK), inactivated state (Q06187 whole entry): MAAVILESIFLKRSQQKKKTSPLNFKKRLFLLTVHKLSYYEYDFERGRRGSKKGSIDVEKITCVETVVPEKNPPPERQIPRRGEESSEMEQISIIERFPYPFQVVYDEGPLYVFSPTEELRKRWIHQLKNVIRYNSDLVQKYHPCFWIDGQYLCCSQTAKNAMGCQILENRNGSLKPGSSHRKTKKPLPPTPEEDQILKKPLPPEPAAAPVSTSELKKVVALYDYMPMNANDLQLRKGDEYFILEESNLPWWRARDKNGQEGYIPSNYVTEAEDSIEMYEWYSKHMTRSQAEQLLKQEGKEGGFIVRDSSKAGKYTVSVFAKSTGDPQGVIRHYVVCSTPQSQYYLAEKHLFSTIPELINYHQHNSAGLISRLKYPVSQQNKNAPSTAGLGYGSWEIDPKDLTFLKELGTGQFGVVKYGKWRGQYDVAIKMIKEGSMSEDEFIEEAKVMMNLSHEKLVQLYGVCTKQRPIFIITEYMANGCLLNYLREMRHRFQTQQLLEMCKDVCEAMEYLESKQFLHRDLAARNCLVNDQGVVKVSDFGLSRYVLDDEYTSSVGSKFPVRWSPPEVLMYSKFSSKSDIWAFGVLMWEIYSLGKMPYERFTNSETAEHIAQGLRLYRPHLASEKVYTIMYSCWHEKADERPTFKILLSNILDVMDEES

For the assay, the target named is Bruton's Tyrosine Kinase (BTK), inactivated state (Homo sapiens (Human), UniProt Q06187). Put plainly: Bruton's Tyrosine Kinase (BTK) Inhibition TR-FRET (Time Resolved FRET) competition assay. The format is binding. The settings on record: TR-FRET competition with Kinase Tracer 178, BTK-Eu complex, 18-24 h at 14° C. As for the experimental part:
Bruton's Tyrosine Kinase (BTK) Inhibition TR-FRET (Time Resolved FRET) Assay
This BTK competition assay measures compound potency (IC50) for the inactivated state of Bruton's Tyrosine Kinase using FRET (Förster/Fluorescence Resonance Energy Transfer) technology. The BTK-Eu complex was incubated on ice one hour prior to use at a starting concentration of 50 nM BTK-Bioease™: 10 nM Eu-streptavidin (Perkin-Elmer Catalog#AD0062). The assay buffer consisted of 20 mM HEPES (pH 7.15), 0.1 mM DTT, 10 mM MgCl2, 0.5 mg/ml BSA with 3% Kinase Stabilizer (Fremont Biosolutions, Catalog #STB-K02). After 1 h, the reaction mixture from above was diluted 10 fold in assay buffer to make 5 nM BTK: 1 nM Eu-Streptavidin complex (donor fluorophore). 18 μl of a mixture of 0.11 nM BTK-Eu and 0.11 nM Kinase Tracer 178 (Invitrogen, Catalog #PV5593,) with BTK-Eu alone as no negative control, was then dispensed into 384-well flat bottom plates (Greiner, 784076). Compounds to be tested in assay were prepared as 10× concentrations and serial dilution in half-log increments was performed in DMSO so as to generate 10 point curves. To initiate the FRET reaction, compounds prepared as 10× stock in DMSO was added to the plates and the plates were incubated 18-24 h at 14° C.
After the incubation the plates were read on a BMG Pherastar Fluorescent plate reader (or equivalent) and used to measure the emission energy from the europium donor fluorophore (620 nm emission) and the FRET (665 nm emission). The negative control well values were averaged to obtain the mean minimum. The positive “no inhibitor” control wells were averaged to obtain the mean maximum. Percent of maximal FRET was calculated using following equation: % max FRET=100×[(FSR cmpd−FSR mean min)/(FSR mean max−FSR mean min)]
where FSR=FRET Signal ratio. % Max FRET curves were plotted in Activity Base (Excel) and the IC50(%), hill slope, z′ and % CV were determined. The mean IC50 and standard deviation will be derived from duplicate curves (singlet inhibition curves from two independent dilutions) using Microsoft Excel.
Representative compound data for this assay are listed below in Table II.
For orientation: TR-FRET usually uses a lanthanide donor and a delayed reading to cut background.
In turn, `Nc1c(C(=O)c2cc3cc(C(=O)N4CCOCC4)ccc3[nH]2)cnn1-c1ccc(Oc2ccccc2)cc1` [Example I-1, [5-Amino-1-(4-phenoxy-phenyl)-1H-pyrazol-4-yl]-[5-(morpholine-4-carbonyl)-1H-indol-2-yl]-methanone] yielded a 50% inhibitory concentration (IC50) of 6.8 nM.

As for `Cc1cc(Oc2ccccc2F)ccc1-n1ncc(C(=O)c2cc3cc(C(=O)N4CCOCC4)ccc3[nH]2)c1N` [Example I-2, {5-Amino-1-[4-(2-fluoro-phenoxy)-2-methyl-phenyl]-1H-pyrazol-4-yl}-[5-(morpholine-4-carbonyl)-1H-indol-2-yl]-methanone], the IC50 was determined as 4.6 nM. Compound `Cc1cc(Oc2ccccc2)ncc1-n1ncc(C(=O)c2cc3cc(C(=O)N4CCOCC4)ccc3[nH]2)c1N` [Example I-3, [5-Amino-1-(4-methyl-6-phenoxy-pyridin-3-yl)-1H-pyrazol-4-yl]-[5-(morpholine-4-carbonyl)-1H-indol-2-yl]-methanone] came in with a half-inhibitory concentration (IC50) of 25 nM. The compound `Nc1c(C(=O)c2cc3cc(C(=O)N4CCOCC4)ccc3[nH]2)cnn1-c1ccc(Oc2ccccc2)c(F)c1` [Example I-4, [5-Amino-1-(3-fluoro-4-phenoxy-phenyl)-1H-pyrazol-4-yl]-[5-(morpholine-4-carbonyl)-1H-indol-2-yl]-methanone] returned an IC50 of 12 nM.

Compound `Cc1cc(Oc2cccc(F)c2F)ccc1-n1ncc(C(=O)c2cc3cc(C(=O)N4CCOCC4)ccc3[nH]2)c1N` [Example I-5] showed an IC50 of 2.3 nM. Regarding `Cc1cc(Oc2ccccc2)c(F)cc1-n1ncc(C(=O)c2cc3cc(C(=O)N4CCOCC4)ccc3[nH]2)c1N` [Example I-6, {2-[5-Amino-1-(5-fluoro-2-methyl-4-phenoxy-phenyl)-1H-pyrazole-4-carbonyl]-1H-indol-5-yl}-morpholin-4-yl-methanone], the 50% inhibitory concentration (IC50) was found to be 43 nM. The figure for `Cc1cc(Oc2ccccc2)ccc1-n1ncc(C(=O)c2cc3cc(C(=O)N4CCOCC4)ccc3[nH]2)c1N` [Example I-7, {2-[5-Amino-1-(2-methyl-4-phenoxy-phenyl)-1H-pyrazole-4-carbonyl]-1H-indol-5-yl}-morpholin-4-yl-methanone] is 2.6 nM.

Compound `Nc1c(C(=O)c2cc3cc(C(=O)N4CCOCC4)ccc3[nH]2)cnn1-c1ccc(Oc2ccccc2)cc1F` [Example I-8, [5-Amino-1-(2-fluoro-4-phenoxy-phenyl)-1H-pyrazol-4-yl]-[5-(morpholine-4-carbonyl)-1H-indol-2-yl]-methanone] had an IC50 of 14.4 nM.

In the case of `Nc1c(C(=O)c2cc3cc(C(=O)N4CCOCC4)ccc3[nH]2)cnn1-c1ccc(Oc2ccccc2F)nc1` [Example I-9, {5-Amino-1-[6-(2-fluoro-phenoxy)-pyridin-3-yl]-1H-pyrazol-4-yl}-[5-(morpholine-4-carbonyl)-1H-indol-2-yl]-methanone], the 50% inhibitory concentration (IC50) was 220 nM.

Compound `Nc1c(C(=O)c2cc3cc(C(=O)N4CCOCC4)ccc3[nH]2)cnn1-c1ccc(Oc2cccc(F)c2F)nc1` [Example I-10, {5-Amino-1-[6-(2,3-difluoro-phenoxy)-pyridin-3-yl]-1H-pyrazol-4-yl}-[5-(morpholine-4-carbonyl)-1H-indol-2-yl]-methanone] registered a concentration for half-maximal inhibition (IC50) of 180 nM. The figure for `Cc1cc(Oc2ccccn2)ccc1-n1ncc(C(=O)c2cc3cc(C(=O)N4CCOCC4)ccc3[nH]2)c1N` [Example I-11, {5-Amino-1-[2-methyl-4-(pyridin-2-yloxy)-phenyl]-1H-pyrazol-4-yl}-[5-(morpholine-4-carbonyl)-1H-indol-2-yl]-methanone] is 200 nM; for `Nc1c(C(=O)c2cc3cc(C(=O)N4CCOCC4)ccc3[nH]2)cnn1-c1ccc(Oc2cccc(F)c2F)cc1` [Example I-12, {5-Amino-1-[4-(2,3-difluoro-phenoxy)-phenyl]-1H-pyrazol-4-yl}-[5-(morpholine-4-carbonyl)-1H-indol-2-yl]-methanone] it is 13 nM; for `Nc1c(C(=O)c2cc3cc(C(=O)N4CCOCC4)ccc3[nH]2)cnn1-c1ccc(Oc2cc(F)ccc2F)nc1` [Example I-13, {5-Amino-1-[6-(2,5-difluoro-phenoxy)-pyridin-3-yl]-1H-pyrazol-4-yl}-[5-(morpholine-4-carbonyl)-1H-indol-2-yl]-methanone] it is 530 nM. The figure for `Nc1c(C(=O)c2cc3cc(C(=O)N4CCOCC4)ccc3[nH]2)cnn1-c1ccc(Oc2ccccc2)cc1Cl` [Example I-14, [5-Amino-1-(2-chloro-4-phenoxy-phenyl)-1H-pyrazol-4-yl]-[5-(morpholine-4-carbonyl)-1H-indol-2-yl]-methanone] is 0.46 nM.

The compound `Nc1c(C(=O)c2cc3cc(C(=O)N4CCOCC4)ccc3[nH]2)cnn1-c1ccc(Oc2ccccc2F)cc1Cl` [Example I-15, {5-Amino-1-[2-chloro-4-(2-fluoro-phenoxy)-phenyl]-1H-pyrazol-4-yl}-[5-(morpholine-4-carbonyl)-1H-indol-2-yl]-methanone] displayed a concentration for half-maximal inhibition (IC50) of 0.82 nM. The compound `Cc1cc(Oc2cccc(Cl)c2)ccc1-n1ncc(C(=O)c2cc3cc(C(=O)N4CCOCC4)ccc3[nH]2)c1N` [Example I-16, (2-{5-Amino-1-[4-(3-chloro-phenoxy)-2-methyl-phenyl]-1H-pyrazole-4-carbonyl}-1H-indol-5-yl)-morpholin-4-yl-methanone] registered an IC50 of 3.6 nM. For the compound `Cc1cc(Oc2cccc(Br)c2)ccc1-n1ncc(C(=O)c2cc3cc(C(=O)N4CCOCC4)ccc3[nH]2)c1N` [Example I-17, (2-{5-Amino-1-[4-(3-bromo-phenoxy)-2-methyl-phenyl]-1H-pyrazole-4-carbonyl}-1H-indol-5-yl)-morpholin-4-yl-methanone], the concentration for half-maximal inhibition (IC50) was found to be 3.5 nM. Compound `Cc1cc(Oc2cccc(C#N)c2)ccc1-n1ncc(C(=O)c2cc3cc(C(=O)N4CCOCC4)ccc3[nH]2)c1N` [Example I-18, 3-(4-{5-Amino-4-[5-(morpholine-4-carbonyl)-1H-indole-2-carbonyl]-pyrazol-1-yl}-3-methyl-phenoxy)-benzonitrile] registered an IC50 of 5.2 nM. `Cc1cc(Oc2cccc(C(C)(C)C)c2)ccc1-n1ncc(C(=O)c2cc3cc(C(=O)N4CCOCC4)ccc3[nH]2)c1N` [Example I-19, {5-Amino-1-[4-(3-tert-butyl-phenoxy)-2-methyl-phenyl]-1H-pyrazol-4-yl}-[5-(morpholine-4-carbonyl)-1H-indol-2-yl]-methanone] had an IC50 of 6.8 nM.

`COc1ccc(-n2ncc(C(=O)c3cc4cc(C(=O)N5CCOCC5)ccc4[nH]3)c2N)c(C)c1` [Example I-20, [5-Amino-1-(4-methoxy-2-methyl-phenyl)-1H-pyrazol-4-yl]-[5-(morpholine-4-carbonyl)-1H-indol-2-yl]-methanone] showed a 50% inhibitory concentration (IC50) of 150 nM. The figure for `N#Cc1cc(Oc2cccc(F)c2F)ccc1-n1ncc(C(=O)c2cc3cc(C(=O)N4CCOCC4)ccc3[nH]2)c1N` [Example I-21, 2-{5-Amino-4-[5-(morpholine-4-carbonyl)-1H-indole-2-carbonyl]-pyrazol-1-yl}-5-(2,3-difluoro-phenoxy)-benzonitrile] is over 100000 nM; for `Nc1c(C(=O)c2cc3cc(C(=O)N4CCOCC4)ccc3[nH]2)cnn1-c1ccc(Oc2cccc(F)c2F)cc1Br` [Example I-22, {5-Amino-1-[2-bromo-4-(2,3-difluoro-phenoxy)-phenyl]-1H-pyrazol-4-yl}-[5-(morpholine-4-carbonyl)-1H-indol-2-yl]-methanone] it is 1.3 nM; for `Cc1cc(Oc2cccc(F)c2F)cc(C)c1-n1ncc(C(=O)c2cc3cc(C(=O)N4CCOCC4)ccc3[nH]2)c1N` [Example I-24, {5-Amino-1-[4-(2,3-difluoro-phenoxy)-2,6-dimethyl-phenyl]-1H-pyrazol-4-yl}-[5-(morpholine-4-carbonyl)-1H-indol-2-yl]-methanone] it is 35 nM. In the case of `COc1nc(Oc2cccc(F)c2F)ccc1-n1ncc(C(=O)c2cc3cc(C(=O)N4CCOCC4)ccc3[nH]2)c1N` [Example I-25, {5-Amino-1-[6-(2,3-difluoro-phenoxy)-2-methoxy-pyridin-3-yl]-1H-pyrazol-4-yl}-[5-(morpholine-4-carbonyl)-1H-indol-2-yl]-methanone] it was 74 nM. The figure for `Cc1cc(Oc2cccc(F)c2F)ccc1-n1ncc(C(=O)c2cc3cc(C(=O)O)ccc3[nH]2)c1N` [Example I-26, 2-{5-Amino-1-[4-(2,3-difluoro-phenoxy)-2-methyl-phenyl]-1H-pyrazole-4-carbonyl}-1H-indole-5-carboxylic acid] is 14 nM.

Regarding `Cc1cc(OCc2ccc(Cl)cc2)ccc1-n1ncc(C(=O)c2cc3cc(C(=O)N4CCOCC4)ccc3[nH]2)c1N` [Example I-27, {5-Amino-1-[4-(4-chloro-benzyloxy)-2-methyl-phenyl]-1H-pyrazol-4-yl}-[5-(morpholine-4-carbonyl)-1H-indol-2-yl]-methanone], the 50% inhibitory concentration (IC50) stood at 3.7 nM.

What is called IC50 is the concentration that inhibits the measured activity by half.
